# Test results as given in patent publication US20210195900A1, “FUNGICIDAL MIXTURES FOR SOYBEAN DISEASES” (priority 2018, published 2021).
# Key:
# [1] = system: Fusarium virguliforme (SDS); assay: Soybean seed treatment field trial, SDS score at stage R6; assay type: in vivo; settings: 9 = no disease, control 6.1
# Procedure: (§1) Soybean seeds treated with penthiopyrad, fluopyram, a combination thereof, at indicated application rates, along with appropriate controls were grown in multiple field locations under a variety of pest pressures including sudden death syndrome (SDS).
# Level of tolerance to Fusarium virguliforme (SDS) in soybean varieties based on SDS score was measured in multiple locations across multiple years. SDS score was determined at or during the soybean developmental stage R6.
# Scale for assigning tolerance to SDS scores:
# Scale 9=clean, no disease
# Scale 8=Up to 10% of plants showing mild symptoms (yellow, chlorotic spots)
# Scale 7=Up to 20% plants showing mild symptoms
# Scale 6=up to 30% plants showing medium symptoms (necrotic spots develop in the chlorotic areas; considered the lowest ‘acceptable’ score)
# Scale 5=40% or more of plants showing medium symptoms
# Scale 4=50% or more plants showing medium to heavy symptoms
# 3, 2, or 1=1/3, 2/3, or complete leaf drop, respectively.
# (§2) For those evaluations shown herein, the Treatment value is greater than or less than CONTROL, and statistically significant at (P-value <0.10).
# soybeans = assay: Soybean seed treatment field trial, grain yield (multi-year, multi-location); assay type: in vivo; settings: control 60.4
# Procedure: as §1, §2
compound,measurement,setting,value
"O=C(NCCc1ncc(C(F)(F)F)cc1Cl)c1ccccc1C(F)(F)F [Fluopyram, N-{2-[3-Chloro-5-(trifluoromethyl)-2-pyridinyl]ethyl}-2-(trifluoromethyl)benzamide]",SDS Score (1-9),[1]; fluopyram 0.075 mg ai/seed,6.8
same,SDS Score (1-9),[1]; fluopyram 0.15 mg ai/seed,7.2
same,"Multi-year, Multi-loc Yield",soybeans; fluopyram 0.075 mg ai/seed,62.2 bu/acre
same,"Multi-year, Multi-loc Yield",soybeans; fluopyram 0.15 mg ai/seed,62.5 bu/acre
"CC(C)CC(C)c1sccc1NC(=O)c1cn(C)nc1C(F)(F)F (stereo not drawn) [Penthiopyrad, N-[2-(1,3-dimethylbutyl)-3-thienyl]-1-methyl-3-(trifluoromethyl)-1H-pyrazole-4-carboxamide]",SDS Score (1-9),[1]; penthiopyrad 0.25 mg ai/seed,6.7
same,"Multi-year, Multi-loc Yield",soybeans; penthiopyrad 0.25 mg ai/seed,62.6 bu/acre
